Experimental data reported in PMC6522510 (Nature Communications, 2019).
Where a name gives a salt, the structure may show the parent alone. Read-outs that look alike come from different tables or passages of the source.

How the values were obtained:
Design in all cases: species or system AML cell lines (8); Primary HTS, single concentration about 10 uM, Cell Titer Glo viability; log10 luminescence, per cent inhibition relative to cycloheximide control
Settings in all cases: 72 h, relative to cycloheximide control, log10 luminescence, inhibitor
CHRF288-11 = tested on: CHRF288-11
CMK = tested on: CMK
CMS = tested on: CMS
M07e = tested on: M07e
ML-2 = tested on: ML-2
MOLM-13 = tested on: MOLM-13
MV4-11 = tested on: MV4-11
U937 = tested on: U937

Compound	CHRF288-11 %inh (CHRF288-11)	CMK %inh (CMK)	CMS %inh (CMS)	M07e %inh (M07e)	ML-2 %inh (ML-2)	MOLM-13 %inh (MOLM-13)	MV4-11 %inh (MV4-11)	U937 %inh (U937)	CHRF288-11 %inh (CHRF288-11; CHRF288-11 %inh, 10 µM)	CMK %inh (CMK; CMK %inh, 10 µM)	CMS %inh (CMS; CMS %inh, 10 µM)	M07e %inh (M07e; M07e %inh, 10 µM)	ML-2 %inh (ML-2; ML-2 %inh, 10 µM)	MOLM-13 %inh (MOLM-13; MOLM-13 %inh, 10 µM)	MV4-11 %inh (MV4-11; MV4-11 %inh, 10 µM)	U937 %inh (U937; U937 %inh, 10 µM)
Oc1ncnc2[nH]ncc12 [SJ000285807-6, ALLOPURINOL]	0.3228%	-2.837%	-3.837%	-3.01%	-1.752%	-2.79%	-0.8311%	0.524%								
COc1ccc(C(Cl)=C(c2ccc(OC)cc2)c2ccc(OC)cc2)cc1 [SJ000285822-4, CHLOROTRIANISENE]	-2.199%	7.136%	1.562%	9.609%	4.119%	5.231%	5.688%	7.913%								
NC(N)=Nc1nc(CSCC/C(N)=N/S(N)(=O)=O)cs1 [SJ000285829-7, FAMOTIDINE]	-4.142%	0.6614%	0.7839%	1.389%	2.616%	1.07%	-0.5719%	7.705%								
CCc1cccc2c3c([nH]c12)C(CC)(CC(=O)O)OCC3 (stereo not shown) [SJ000285831-7, ETODOLAC]	-0.814%	4.628%	0.03623%	4.534%	1.517%	1.754%	1.346%	-0.08316%								
Nc1ccc(S(=O)(=O)Nc2ccccn2)cc1 [SJ000285852-4, SULFAPYRIDINE]									-1.153%	-3.962%	2.156%	-0.2217%	1.702%	-2.284%	0.2362%	2.235%
Nc1ccc(S(=O)(=O)Nc2ccccn2)cc1 [SJ000285852-5, SULFAPYRIDINE]									1.364%	-1.27%	2.339%	0.899%	-1.492%	1.863%	1.788%	0.04414%
CC(C(=O)O)c1ccc(C(=O)c2cccs2)cc1 (stereo not shown) [SJ000285866-4, SUPROFEN]	0.5358%	0.7662%	-1.053%	-0.1194%	4.32%	1.517%	-0.1438%	0.9376%								
Cc1ccc(S(=O)(=O)NC(=O)NN2CCCCCC2)cc1 [SJ000285887-7, TOLAZAMIDE]	90.56%	-1.031%	0.4752%	4.47%	-1.198%	0.3359%	0.7665%	-0.04508%								
NCCCC[C@H](N[C@@H](CCc1ccccc1)C(=O)O)C(=O)N1CCC[C@H]1C(=O)O [SJ000285890-4, LISINOPRIL]									-6.515%	2.277%	-0.4714%	-2.951%	-0.08728%	-2.286%	2.293%	5.753%
NCCCC[C@H](N[C@@H](CCc1ccccc1)C(=O)O)C(=O)N1CCC[C@H]1C(=O)O [SJ000285890-5, LISINOPRIL]									0.1312%	-4.631%	-0.7769%	-0.6293%	2.151%	-1.932%	1.898%	0.1781%
CCCCNc1cc(C(=O)O)cc(S(N)(=O)=O)c1Oc1ccccc1 [SJ000285893-7, BUMETANIDE]									-2.258%	-6.073%	2.865%	-2.011%	-1.959%	-2.419%	-2.25%	1.768%
CCCCNc1cc(C(=O)O)cc(S(N)(=O)=O)c1Oc1ccccc1 [SJ000285893-8, BUMETANIDE]									-1.756%	-0.903%	2.258%	45.31%	-0.3091%	2.916%	2.839%	0.292%
NC[C@H]1CC[C@H](C(=O)O)CC1 [SJ000285898-4, TRANEXAMIC ACID]	-2.741%	-3.012%	-4.095%	0.2149%	1.648%	-3.616%	-0.1986%	-1.275%								
CC(=O)OC/C=C(C)/C=C/C=C(C)/C=C/C1=C(C)CCCC1(C)C [SJ000285933-3, RETINYL ACETATE]	13.53%	13.65%	2.535%	2.591%	2.843%	0.103%	3.526%	8.926%								
CCOC(=O)OC(C)OC(=O)[C@@H]1N2C(=O)[C@@H](NC(=O)[C@H](N)c3ccccc3)[C@H]2SC1(C)C (stereo partly shown) [SJ000285946-4, BACAMPICILLIN HYDROCHLORIDE]	-3.08%	-5.01%	-1.038%	-1.353%	-0.2443%	6.375%	-1.634%	-1.553%								
CN(C)CCC=C1c2ccccc2C=Cc2ccccc21 [SJ000285960-7, CYCLOBENZAPRINE HYDROCHLORIDE]	66.65%	3.38%	-1.125%	2.233%	3.717%	-2.604%	2.11%	7.437%								
CCn1cc(C(=O)O)c(=O)c2cc(F)c(N3CCNCC3)nc21 [SJ000285962-4, ENOXACIN]	7.607%	15.64%	4.313%	7.045%	32.21%	-2.8%	40.28%	-0.8348%								
